This note sets out measurements from patent publication US20240294522A1 (Lead Discovery Center GmbH, priority 2021, published 2024).

One experiment concerns the target T1, GRK2 (Homo sapiens, UniProt P25098).
T1 construct: purchased Thermo Scientific
T1 sequence (P25098 1-689): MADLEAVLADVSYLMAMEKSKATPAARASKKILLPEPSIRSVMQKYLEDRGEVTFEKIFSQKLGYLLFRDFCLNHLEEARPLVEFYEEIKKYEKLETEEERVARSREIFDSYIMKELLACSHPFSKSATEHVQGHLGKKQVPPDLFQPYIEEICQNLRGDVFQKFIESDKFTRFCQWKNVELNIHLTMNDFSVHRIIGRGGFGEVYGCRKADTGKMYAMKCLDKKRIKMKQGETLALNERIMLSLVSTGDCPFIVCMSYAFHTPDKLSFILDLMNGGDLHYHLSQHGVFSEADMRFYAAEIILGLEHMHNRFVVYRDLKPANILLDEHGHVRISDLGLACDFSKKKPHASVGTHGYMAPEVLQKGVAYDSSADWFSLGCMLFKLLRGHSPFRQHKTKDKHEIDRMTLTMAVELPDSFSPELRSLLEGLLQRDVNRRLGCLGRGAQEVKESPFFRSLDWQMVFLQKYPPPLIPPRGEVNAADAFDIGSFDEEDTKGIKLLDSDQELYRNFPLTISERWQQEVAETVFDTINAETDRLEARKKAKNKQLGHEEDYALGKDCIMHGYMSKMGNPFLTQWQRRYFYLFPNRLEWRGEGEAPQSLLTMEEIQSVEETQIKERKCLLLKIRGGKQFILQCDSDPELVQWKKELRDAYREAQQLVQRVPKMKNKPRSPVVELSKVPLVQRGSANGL
Description: Lance Kinase Activity Assay, GRK2. Particulars: biochemical Lance kinase activity assay; class symbols A-F; read-out: GRK2 LANCE Assay (IC-50). A digest of the protocol: (§1)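 IC50s from sigmoidal dose-response over 0.0025-10 μM compound, with phosphorylated ULight substrate detected by Eu anti-phospho antibody FRET after EDTA quench.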
In general terms: In TR-FRET formats the signal depends on donor and acceptor labels being close together.

The next experiment addresses T2, GRK5 (Homo sapiens, UniProt P34947).
T2 construct: purchased Thermo Scientific
As to the kind of experiment: Lance Kinase Activity Assay, GRK5. The following applies: biochemical Lance kinase activity assay; class symbols A-F; read-out: GRK5 LANCE Assay (IC-50). A digest of the protocol:
as §1

T2 sequence (P34947 whole entry): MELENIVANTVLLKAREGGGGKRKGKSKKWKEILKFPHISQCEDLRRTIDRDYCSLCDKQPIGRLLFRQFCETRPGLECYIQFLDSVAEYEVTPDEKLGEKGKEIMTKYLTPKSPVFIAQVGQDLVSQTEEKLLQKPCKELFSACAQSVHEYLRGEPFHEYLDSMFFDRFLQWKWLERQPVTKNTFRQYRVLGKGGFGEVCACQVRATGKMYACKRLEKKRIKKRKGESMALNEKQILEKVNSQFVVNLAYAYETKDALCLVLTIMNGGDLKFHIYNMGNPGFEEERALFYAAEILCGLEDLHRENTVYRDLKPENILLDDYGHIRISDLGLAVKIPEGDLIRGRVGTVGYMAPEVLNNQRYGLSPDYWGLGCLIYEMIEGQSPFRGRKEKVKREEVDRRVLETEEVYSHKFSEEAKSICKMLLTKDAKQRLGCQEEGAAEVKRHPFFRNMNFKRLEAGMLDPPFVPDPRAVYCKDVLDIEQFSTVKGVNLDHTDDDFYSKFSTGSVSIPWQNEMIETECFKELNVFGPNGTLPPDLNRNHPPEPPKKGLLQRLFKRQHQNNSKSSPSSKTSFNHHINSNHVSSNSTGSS

Consider `C[C@@H](NC(=O)/C(C#N)=C/c1c[nH]c2ncc(-c3cnn(C)c3)cc12)c1ccc(F)c(F)c1` [Example 258, (R,E)-2-cyano-N-(1-(3,4-difluorophenyl)ethyl)-3-(5-(1-methyl-1H-pyrazol-4-yl)-1H-pyrrolo[2,3-b]pyridin-3-yl)acrylamide], for which the figures for the IC50 on GRK2 and at GRK5 were 0.1 to 0.5 µM and no more than 0.05 µM, respectively.

`COc1ccc([C@@H](C)NC(=O)/C(C#N)=C/c2c[nH]c3ncc(OCc4cc(C)nn4C)cc23)cc1OC` [Example 101, (R,E)-2-cyano-N-(1-(3,4-dimethoxyphenyl)ethyl)-3-(5-((1,3-dimethyl-1H-pyrazol-5-yl)methoxy)-1H-pyrrolo[2,3-b]pyridin-3-yl)acrylamide]: the results for the IC50 at GRK2 and at GRK5 were greater than 10 µM and 0.05 to 0.1 µM, respectively.

Regarding `COc1ccc([C@@H](C)NC(=O)/C=C/c2c[nH]c3ncc(-c4ccnc(S(C)(=O)=O)c4)cc23)cc1OC` [Example 250, (R,E)-N-(1-(3,4-dimethoxyphenyl)ethyl)-3-(5-(2-(methylsulfonyl)pyridin-4-yl)-1H-pyrrolo[2,3-b]pyridin-3-yl)acrylamide], the IC50 at GRK2 was 1 to 10 µM; on GRK5 it was no more than 0.05 µM.

Consider `COc1ccc([C@@H](C)NC(=O)/C=C/c2c[nH]c3nccc(-c4cccc(N(C)C)c4)c23)cc1OC` [Example 228, (R,E)-N-(1-(3,4-dimethoxyphenyl)ethyl)-3-(4-(3-(dimethylamino)phenyl)-1H-pyrrolo[2,3-b]pyridin-3-yl)acrylamide], for which the IC50 at GRK2 was in the range of 1 to 10 µM; at GRK5, 0.05 to 0.1 µM.

On to `N#C/C(=C\c1c[nH]c2ncccc12)C(=O)NCc1ccccc1C#N` [Example 35, (E)-2-cyano-N-(2-cyanobenzyl)-3-(1H-pyrrolo[2,3-b]pyridin-3-yl)acrylamide], for which the IC50 at GRK2 is 1 to 10 µM; on GRK5, 0.1 to 0.5 µM.

Turning to `COc1ccc([C@@H](C)NC(=O)/C=C/c2c[nH]c3ncc(OC4CCS(=O)(=O)CC4)cc23)cc1OC` [Example 55, (R,E)-N-(1-(3,4-dimethoxyphenyl)ethyl)-3-(5-((1,1-dioxidotetrahydro-2H-thiopyran-4-yl)oxy)-1H-pyrrolo[2,3-b]pyridin-3-yl)acrylamide], the figures for the IC50 on GRK2 and on GRK5 were greater than 10 µM and no more than 0.05 µM, respectively.

In the case of `CN(C)CCC(NC(=O)/C(C#N)=C/c1c[nH]c2ncccc12)c1ccccc1` (centres unmarked) [Example 48, (E)-2-cyano-N-(3-(dimethylamino)-1-phenylpropyl)-3-(1H-pyrrolo[2,3-b]pyridin-3-yl)acrylamide], the figures for the IC50 on GRK2 and on GRK5 were 0.05 to 0.1 µM and no more than 0.05 µM, respectively.

In the case of `COc1ccc([C@@H](C)NC(=O)/C(C#N)=C/c2c[nH]c3ncc(-c4cc(F)cc(F)c4)cc23)cc1OC` [Example 131], the results for the IC50 at GRK2 and at GRK5 were 1 to 10 µM and 0.05 to 0.1 µM, respectively.

As to `CCN(CC)CCC(NC(=O)/C(C#N)=C/c1c[nH]c2ncccc12)c1ccccc1` (centres unmarked) [Example 52, (E)-2-cyano-N-(3-(diethylamino)-1-phenylpropyl)-3-(1H-pyrrolo[2,3-b]pyridin-3-yl)acrylamide], the IC50 on GRK2 and at GRK5 was 0.1 to 0.5 µM in each case.

In the case of `C[C@@H](NC(=O)/C(C#N)=C/c1c[nH]c2ncccc12)c1ccc(Cl)cc1` [Example 70, (R,E)-N-(1-(4-chlorophenyl)ethyl)-2-cyano-3-(1H-pyrrolo[2,3-b]pyridin-3-yl)acrylamide], the results for the IC50 on GRK2 and on GRK5 were 0.5 to 1 µM and 0.1 to 0.5 µM, respectively.

Turning to `COc1ccc([C@@H](C)NC(=O)/C(C#N)=C/c2c[nH]c3ncc(-c4ccccc4)cc23)cc1OC` [Example 116], the IC50 at GRK2 is greater than 10 µM; on GRK5, 0.05 to 0.1 µM.

For the compound `COc1ccc([C@@H](C)NC(=O)/C=C/c2c[nH]c3ncc(-c4cccc(S(C)(=N)=O)c4)cc23)cc1OC` (stereo partly drawn) [Example 251, (E)-N-((R)-1-(3,4-dimethoxyphenyl)ethyl)-3-(5-(3-(S-methylsulfonimidoyl)phenyl)-1H-pyrrolo[2,3-b]pyridin-3-yl)acrylamide], the IC50 is 0.5 to 1 µM on GRK2 and no more than 0.05 µM on GRK5.

Consider `CC[C@@H](NC(=O)/C(C#N)=C/c1c[nH]c2ncc(Cl)cc12)c1ccccc1` [Example 77, (R,E)-3-(5-chloro-1H-pyrrolo[2,3-b]pyridin-3-yl)-2-cyano-N-(1-phenylpropyl)acrylamide], for which the IC50 on GRK2 was 1 to 10 µM; at GRK5 it was 0.1 to 0.5 µM.

Take `COc1ccc([C@@H](C)NC(=O)/C=C/c2c[nH]c3ncc(-c4cccc(C(N)=O)c4)cc23)cc1OC` [Example 189]: the IC50 is 1 to 10 µM on GRK2 and no more than 0.05 µM on GRK5.

`COc1ccc([C@@H](C)NC(=O)/C(C#N)=C/c2c[nH]c3ncc(Nc4ccccc4)cc23)cc1OC` [Example 88, (R,E)-2-cyano-N-(1-(3,4-dimethoxyphenyl)ethyl)-3-(5-(phenylamino)-1H-pyrrolo[2,3-b]pyridin-3-yl)acrylamide]: the IC50 at GRK2 was 1 to 10 µM; on GRK5, no more than 0.05 µM.

Consider `N#C/C(=C\c1c[nH]c2ncc(C(F)(F)F)cc12)C(=O)NCc1ccccc1` [Example 71, (E)-N-benzyl-2-cyano-3-(5-(trifluoromethyl)-1H-pyrrolo[2,3-b]pyridin-3-yl)acrylamide], for which the IC50 on GRK2 is greater than 10 µM; at GRK5 it was 1 to 10 µM.

On to `COc1ccc(CNC(=O)/C(C#N)=C/c2c[nH]c3ncccc23)cc1S(N)(=O)=O` [Example 36, (E)-2-cyano-N-(4-methoxy-3-sulfamoylbenzyl)-3-(1H-pyrrolo[2,3-b]pyridin-3-yl)acrylamide], for which the figures for the IC50 at GRK2 and on GRK5 were 1 to 10 µM and 0.1 to 0.5 µM, respectively.

In the case of `COc1ccc([C@@H](C)NC(=O)/C(C#N)=C/c2c[nH]c3ncc(-c4cccc(CN5CCN(C)CC5)c4)cc23)cc1OC` [Example 118, (R,E)-2-cyano-N-(1-(3,4-dimethoxyphenyl)ethyl)-3-(5-(3-((4-methylpiperazin-1-yl)methyl)phenyl)-1H-pyrrolo[2,3-b]pyridin-3-yl)acrylamide], the IC50 on GRK2 is 1 to 10 µM; on GRK5, no more than 0.05 µM.

For `COc1ccc([C@@H](C)NC(=O)/C=C/c2c[nH]c3ncc(-c4ccccc4S(C)(=O)=O)cc23)cc1OC` [Example 222, (R,E)-N-(1-(3,4-dimethoxyphenyl)ethyl)-3-(5-(2-(methylsulfonyl)phenyl)-1H-pyrrolo[2,3-b]pyridin-3-yl)acrylamide], the IC50 on GRK2 is greater than 10 µM; on GRK5, 1 to 10 µM.

With `COc1ccc([C@@H](C)NC(=O)/C(C#N)=C/c2c[nH]c3ncc(-c4ccccc4CN4CCCCC4)cc23)cc1OC` [Example 129, (R,E)-2-cyano-N-(1-(3,4-dimethoxyphenyl)ethyl)-3-(5-(2-(piperidin-1-ylmethyl)phenyl)-1H-pyrrolo[2,3-b]pyridin-3-yl)acrylamide], the IC50 on GRK2 is greater than 10 µM; at GRK5, 1 to 10 µM.

As to `COc1ccc([C@@H](C)NC(=O)/C=C/c2c[nH]c3ncc(-c4cncnc4)cc23)cc1OC` [Example 207, (R,E)-N-(1-(3,4-dimethoxyphenyl)ethyl)-3-(5-(pyrimidin-5-yl)-1H-pyrrolo[2,3-b]pyridin-3-yl)acrylamide], the results for the IC50 on GRK2 and at GRK5 were greater than 10 µM and 0.5 to 1 µM, respectively.

As for `COc1ccc([C@@H](C)NC(=O)/C=C/c2c[nH]c3ncc(-c4cccc(NS(C)(=O)=O)c4)cc23)cc1OC` [Example 193], the results for the IC50 on GRK2 and on GRK5 were 1 to 10 µM and no more than 0.05 µM, respectively.
